Tests used:
[1] = test system: Cholic acid-loaded rat model; experiment: Bile acid-decreasing effect in portal vein of rats loaded with cholic acid (Test Example 2); format: in vivo; conditions: 0.1 mg/kg oral with cholic acid 200 mg/kg; portal vein blood after 2 hours; HCO-60 0.1%
Method: Bile Acid-Decreasing Effect in Portal Vein of Rats Loaded With Cholic Acid
In this test example, the test for confirming the bile acid-decreasing effect in portal vein of cholic acid-loaded rats was carried out according to the method described in Pharmacology and Therapeutics [Jpn Pharmacol. Ther., Vol. 24 Supplement, 1996, 103 (S-577)-110 (S-584)].
That is, 7 to 9 weeks old SD (IGS) rats were starved on the day before the test and thereafter. […] After 2 hours from the administration, a sample of blood was taken from a portal vein and total serum bile acid level was measured to study the effect of the test compound (n=6). Further, as a control group, a group (n=6) loaded with cholic acid (200 mg/kg) only was prepared and the same test procedure was followed. A commercially available kit (trade name: SOTANJUSAN-TEST WAKO-(SOTANJUSAN=total bile acid), manufactured by WAKO PURE CHEMICAL […], LTD.) was used for the measurement of bile acid. Assuming the value of the control group, which is a group in which no test compound was used, as 100%, the rate of decrease (percentage (%) of decrease) of the bile acid level when a fixed amount of the test compound was used was determined.

[2] = test system: Rat model loaded with high cholesterol diet; experiment: Blood cholesterol lowering effect in rats fed on a high cholesterol diet (Test Example 1); format: in vivo; conditions: treatment model; 0.3 mg/kg at a time, oral twice a day; control group = 100%
Method: Blood Cholesterol Lowering Effect in Rats Fed on a High Cholesterol Diet
In this test example, blood cholesterol level lowering effect in rats fed on a high cholesterol diet was tested according to the method described in J. Lipid, Res., 1995, 36, 1098-1105.
That is, a diet containing 0.4% cholesterol and 0.5% of bile acid was given to 7 to 9 weeks old SD (IGS) male rats for 5 days before the test to increase the blood cholesterol level. […] Cholestimide (trade name: CHOLEBINE GRANULE 70% manufactured by MITSUBISHI TOKYO PHARMACEUTICALS, INC.), which is an anion exchange resin, was suspended in distilled water while the test compound was either dissolved or suspended in distilled water. These were forcibly orally administered twice a day every day from the day of beginning of the test (each n=8). After 3 hours from the administration of the drug on the last day of the test, a blood sample was taken from a jugular vein pool and serum cholesterol level was measured to study the effect of the test compound. Further, as a control group, a group (n=8) fed on only high cholesterol diet and given distilled water (1 ml/kg) was prepared and the same test procedure was followed. A commercially available kit was used for the measurement of total cholesterol and HDL cholesterol. The value obtained by subtracting an HDL cholesterol value from the total cholesterol value was taken as an LDL+VLDL cholesterol value. Assuming the LDL+VLDL cholesterol value of the control group, for which the test compound was not used, as 100%, the rate of decrease (percentage of decrease) of LDL +VLDL cholesterol value when a fixed amount of the test compound was used, was determined.

[3] = test system: bile duct partial ligation model; experiment: Cholestasis-caused hepatopathy model, bile duct partial ligation, protocol A (Test Example 5); format: in vivo, rat; conditions: 1 mg/kg twice a day 3.5 days, 1% HCO60, average ± standard error; for ALT: controls 417 ± 185 / 384 ± 156; for AST: controls 589 ± 221 / 643 ± 125; for ALP: controls 2318 ± 583 / 2204 ± 327
Method: “Cholestasis-Caused Hepatopathy” Model (Bile Duct Partial Ligation Model)
The “cholestasis-caused hepatopathy” model by partial ligation surgery of bile duct in this test example was handled by referring to the method by Kanno et al. [Kanzo (Liver) 43 Suppl (1): A126, 2002].
That is, the abdomen of a 7 to 10 weeks old SD (IGS) male rat was cut open under anesthesia with pentobarbital and partial ligation surgery of the bile duct was carried out. A blood sample was taken from the femoral vein before the surgery and this was taken as pre-administration value. The test compound and 200 mg/kg of bile acid were forcibly orally administered twice a day for 3.5 days from the next day of the surgery (protocol A). The test compound and 200 mg/kg of bile acid were forcibly orally administered twice a day for 3.5 days without carrying out the partial ligation surgery (protocol B). In both the cases, the test compound was dissolved or suspended in distilled water or an aqueous solution of 1% HCO60 (manufactured by NIPPON CHEMICALS COMPANY, LTD.). […] Moreover, to consider the influence of the surgery, a pseudo operation group (a Sham group) was established as necessary. After 6 hours from the administration of the drug on the last day of the test, a blood sample was taken from the abdominal aorta and AST (GOT), ALT (GPT), and ALP in the blood were measured by using a measurement kit (GOTII-HA TEST WAKO, GPTII-HA TEST WAKO, and ALKALINE PHOSPHER-HA TEST WAKO respectively, all manufactured by WAKO PURE CHEMICAL […], LTD.) with an auto analyzer (NITTECH ANALYZER SUPER Z818).

SMILES | Rate of decrease (%) of bile acid [1] | Rate of decrease (%) of LDL + VLDL [2] | ALT [3] | AST [3] | ALP [3]
CCCCC1(CCCC)CS(=O)(=O)c2ccc(N(C)C)cc2C(c2cccc(NC(=S)Nc3ccc(C[N+]4(Cc5ccccc5)CCC(O)CC4)cc3)c2)N1.[Br-] (centres unmarked) [Example 3605] | 24% | 28% | 258 ± 219 IU/L | 487 ± 382 IU/L | 1489 ± 533 IU/L
CCCCC1(CCCC)CS(=O)(=O)c2ccc(N(C)C)cc2C(c2cccc(NC(=S)CCCCC[N+]34CCC(CC3)CC4)c2)N1.[Br-] (centres unmarked) [Example 1, 1-{5-[3-(3,3-Dibutyl-7-dimethylamino-1,1-dioxo-2,3,4,5-tetrahydro-1,4-benzothiazepin-5-yl)phenylthiocarbamoyl]pentyl}-1-azoniabicyclo[2.2.2]octane bromide] |  | 49% |  |  | 
CCCCC1(CCCC)CS(=O)(=O)c2ccc(N(C)C)cc2C(c2cccc(NC(=S)Nc3ccc(C[N+](C)(C)Cc4ccccc4)cc3)c2)N1.[Br-] (centres unmarked) [Example 3440] | 26% | 36% | 155 ± 38 IU/L | 309 ± 37 IU/L | 1614 ± 189 IU/L
CCCCC1(CCCC)CS(=O)(=O)c2ccc(N(C)C)cc2C(c2cccc(NC(=S)Nc3ccc(C[N+]45CCC(c6ccccc6)(CC4)CC5)cc3)c2)N1.[Br-] (centres unmarked) [Example 3696] | 13% | 25% | 191 ± 21 IU/L | 325 ± 87 IU/L | 1209 ± 125 IU/L
CCCCC1(CCCC)CS(=O)(=O)c2ccc(N(C)C)cc2C(c2cccc(NC(=S)Nc3ccc(C[n+]4cccc(CCC(=O)OC)c4)cc3)c2)N1.[Br-] (centres unmarked) [Example 3752] | 42% | 50% | 165 ± 47 IU/L | 358 ± 87 IU/L | 1112 ± 184 IU/L
CCCCC1(CCCC)CS(=O)(=O)c2ccc(N(C)C)cc2C(c2cccc(NC(=S)Nc3ccc(C[n+]4ccccc4CCC)cc3)c2)N1.[Br-] (centres unmarked) [Example 5408] | 35% | 43% | 197 ± 45 IU/L | 198 ± 65 IU/L | 1005 ± 102 IU/L
C#CC[N+](C)(Cc1ccccc1)Cc1ccc(NC(=S)Nc2cccc(C3NC(CCCC)(CCCC)CS(=O)(=O)c4ccc(N(C)C)cc43)c2)cc1 (centres unmarked) [Example 3448] | 25% | 20% | 181 ± 79 IU/L | 352 ± 210 IU/L | 1148 ± 332 IU/L
CCCCC1(CCCC)CS(=O)(=O)c2ccc(N(C)C)cc2C(c2cccc(NC(=S)Nc3ccc(C[n+]4ccc(C(C)(C)C)cc4)cc3)c2)N1.[Br-] (centres unmarked) [Example 3713] | 32% | 41% | 163 ± 96 IU/L | 280 ± 61 IU/L | 1008 ± 289 IU/L
CCCCC1(CCCC)CS(=O)(=O)c2ccc(N(C)C)cc2C(c2cccc(NC(=S)Nc3ccc(C[n+]4cccc(CCCO)c4)cc3)c2)N1.[Br-] (centres unmarked) [Example 3747] | 40% | 48% | 146 ± 70 IU/L | 245 ± 81 IU/L | 960 ± 259 IU/L
